# Results reported in patent US9321743B2, “Compositions and methods of inhibiting N-acylethanolamine-hydrolyzing acid amidase” (The Regents of the University of California, priority 2007, dated 2016).
# Key:
# [1] = tested on: carrageenan-induced inflammation; assay: mouse carrageenan model (carrageenan-soaked polyethylene sponge implanted under the dorsal skin); assay type: in vivo
# From the text: The contribution of endogenous PEA to inflammatory processes remains largely undefined. […] The inventors have previously shown that the proinflammatory phorbol ester, 12-O-tetradecanoylphorbol-13-acetate (TPA), decreases dermal PEA levels following skin inflammation. These findings raised the possibility that reduced PEA levels during inflammation may allow for the progression of the inflammatory process. To further explore this idea, the inventors evaluated the effects of carrageenan-induced inflammation on PEA levels in the mouse. Polyethylene sponges injected with vehicle (10% DMSO in saline) or carrageenan (1%) were surgically implanted under the dorsal skin of mice. After 3 days, the mice were sacrificed and the sponges were removed and analyzed for inflammatory cell infiltration and cellular PEA content. In carrageenan-treated animals the number of infiltrating cells (primarily neutrophils) increased by approximately 3-fold as can be taken from FIG. 2. Here, surgical implantation of vehicle (v) or carrageenan (c) soaked sponges under the dorsal skin of Swiss mice for 3 days (A) increased the number of infiltrating neutrophils and (B) decreased the levels of endogenous cellular PEA. (C) Time course of the effects of vehicle (open symbols) or carrageen (closed symbols) on PEA levels **P<0.01 or ***P<0.001 vs. V, t-test or ANOVA, followed by Dunnett's post-hoc as appropriate (n=6).
# As a first step in determining the role of endogenous PEA in inflammation, the inventors examined the effects of local application of PEA on inflammatory responses. Polyethylene sponges injected with vehicle or carrageenan (1%) and either vehicle (10% DMSO in saline) or various doses of PEA (0.1-50 μg) were surgically implanted under the dorsal skin of mice. After 3 days, the mice were killed and the sponges were removed and analyzed for cell infiltration. […] Here panels (A-B) depict the effect of vehicle (open bars), carrageenan (filled bars) or PEA (0.1-50 μg) in Swiss mice, black bars; PEA (50 μg in PPAR-α−/− mice), scored as the number of infiltrating inflammatory cells into a polyethylene sponge (size) injected with vehicle, carrageenan (1%) or PEA, implanted under the dorsal skin of (A) Swiss mice or (B) wildtype C57BL6 mice (+/+) or PPAR-α/− mice for 3 days. **P<0.01 or ***P<0.001 vs. V, ## P<0.01 vs. carrageenan control. ANOVA, followed by Tukey's or Dunnett's post-hoc as appropriate (n=6). Thus, it should be appreciated that peripheral inflammation is associated with decreased PEA synthesis in infiltrating cells, and that restoring PEA levels by exogenous PEA administration reduces inflammatory responses.
# Polyethylene sponges (1 cm^3) were injected with either vehicle (100 μl of water:DMSO (9:1), V, open bars), carrageenan (1%, filled bars), URB597 (30 μg), and URB783 (30 μg) as indicated. **P<0.01 or ***P<0.001 vs. V, ## P<0.01 vs. carrageenan control. ANOVA, followed by Tukey's or Dunnett's post-hoc as appropriate (n=5-7).
# spinal cord injury = spinal cord injury (SCI) model, extradural clip compression; assay type: in vivo, mouse; conditions: spinal cord tissue 24 hours after SCI, local administration after SCI
# Procedure: In the spinal cord injury (SCI) model, extradural compression of a section of the spinal cord exposed via a four-level T5-T8 aminectomy, caused a substantial increase in iNOS expression in the inflammatory cells as well as in nuclei of […] in the white and gray matter of the spinal cord tissues collected from mice 24 hours after SCI. No iNOS staining was detected in the spinal cord obtained from sham mice. […] A typical experimental protocol is described below.
# Mice were randomized into 4 groups (n=40 animals/group). Sham animals were subjected to the surgical procedure except that the aneurysm clip was not applied and treated locally at the spinal cord T5-T8 level with vehicle (saline) or 3 (30 μg/mouse) 1 h and 6 h after surgical procedure. […]
# Immunohistochemical localization of PAR, nitrotyrosine, FAS-ligand, Bax, Bcl-2 and iNOS. Twenty-four hours after SCI, nitrotyrosine, a specific marker of nitrosative stress, was measured by immunohistochemical analysis in the spinal cord sections to determine the localization of “peroxynitrite formation” and/or other nitrogen derivatives produced during SCI. […] Specific labeling was detected with a biotin-conjugated goat anti-rabbit IgG and avidin-biotin peroxidase complex ([…]). […]
# recombinant NAAA = recombinant NAAA (Rattus norvegicus (Rat), UniProt Q5KTC7); assay: NAAA assay; assay type: biochemical; conditions: read-out: IC50 of NAAA inhibition
# Sequence of recombinant NAAA (Q5KTC7 34-362): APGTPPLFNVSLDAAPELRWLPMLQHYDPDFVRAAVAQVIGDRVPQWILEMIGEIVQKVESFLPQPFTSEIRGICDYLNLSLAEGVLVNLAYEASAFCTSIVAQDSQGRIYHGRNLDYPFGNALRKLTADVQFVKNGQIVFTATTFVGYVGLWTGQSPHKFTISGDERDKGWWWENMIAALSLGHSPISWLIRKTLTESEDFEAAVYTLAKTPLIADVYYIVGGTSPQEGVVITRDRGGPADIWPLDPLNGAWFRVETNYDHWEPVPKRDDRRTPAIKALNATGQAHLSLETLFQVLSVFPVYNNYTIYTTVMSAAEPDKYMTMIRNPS
# Procedure: Recombinant NAAA or native rat lung NAAA was incubated at 37° C. for 30 min in 0.2 ml of sodium hydrogen phosphate buffer (50 mM, pH 5.0) containing 0.1% Triton X-100, 3 mM dithiothreitol (DTT) and […] heptadecenoylethanolamide as substrate. The reaction was terminated by the addition of 0.2 ml cold methanol containing […] of heptadecanoic acid (HDA, NuChek Prep, Elysian, Minn.). Samples were analyzed by LC/MS (liquid chromatography/mass spectrometry). Heptadecanoic acid was eluted on an XDB Eclipse C18 column isocratically at 2.2 ml/min for 1 min with a solvent mixture of 95% methanol and 5% water, both containing 0.25% acetic acid and 5 mM ammonium acetate. The column temperature was 50° C. ESI was in the negative mode, capillary voltage was 4 kV, and fragmentor voltage was 100 V. N2 was used as drying gas at a flow rate of 13 liters/min and a temperature of 350° C. Nebulizer pressure was set at 60 psi. [M-H]-was monitored in SIM mode using heptadecanoic acid as internal standard. Calibration curves were generated using commercial heptadecenoic acid (Nu-Chek Prep, m/z=267).
# [2] = 30 μg in sponge, 3 days, Swiss mice
compound,measurement,setting,value
"NC(=O)c1cccc(-c2cccc(OC(=O)NC3CCCCC3)c2)c1 [URB597, reference compound]",anti-inflammatory effect,"[1]; 30 μg in sponge, 3 days",no anti-inflammatory effect
"O=C(CCc1ccccc1)N[C@H]1COC1=O [URB783, (S)—N-(2-oxooxetan-3-yl)-3-phenylpropionamide]",endogenous PEA levels,[1]; [2],restored PEA to basal levels
same,number of infiltrating cells,[1]; [2],significantly reduced
same,anti-inflammatory effects in PPAR-α null mice,[1]; PPAR-α null mice,absent
same,exudates volume,"[1]; in sponge, data not shown",significantly reduced
same,expression of iNOS,spinal cord injury,significant reduction
same,"other markers of inflammation and cell apoptosis (PAR, nitrotyrosine, Fas-ligand, Bax, Bcl-2, TUNEL)",spinal cord injury,significant reduction
same,IC50,recombinant NAAA,420 ± 20 nM
"O=C(N[C@H]1COC1=O)c1ccc(-c2ccccc2)cc1 [URB894, (S)—N-(2-oxooxetan-3-yl)biphenyl-4-carboxamide]",IC50,recombinant NAAA,115 ± 13 nM
"CCCCCCCCCCCCCCCC(=O)NCCO [PEA, N-palmitoylethanolamine, reference compound]",number of infiltrating cells and edema in PPAR-α-null animals,"[1]; PEA 50 μg, PPAR-α-null mice",had no effect
same,number of infiltrating cells,"[1]; PEA 0.1-50 μg in sponge, 3 days, wild-type mice",dose-dependently reduced
same,edema,"[1]; PEA in sponge, wild-type mice, data not shown",dose-dependently reduced
